The values that follow come from patent US9538782B2, “Inhibition of sensory irritation during consumption of smokeless tobacco products using a combinatorial approach” (Altria Client Services LLC, priority 2013, dated 2017).

Assay [1] relates to sensory nerve fibers. The following applies: isolated mouse trachea model; Kichco et al. 2007; cited from earlier work.
In assay [2] the test system is human subjects. Description: human subject study of camphor added to pouches of smokeless tobacco. The format is in vivo. The text has this:
Nicotine, for example, is an agonist of the nicotinic acetylcholine receptors, and can produce the sensory irritation, such as burning or stinging, in the mouth or throat, as well as the gastrointestinal discomfort sometimes associated with smokeless tobacco products.

For assay [3], the target named is TRPV1 sensory channel (Homo sapiens, UniProt Q8NER1). Nature of the assay: TRPV1 activation in human tissue culture cells expressing the TRPV1 sensory channel. Conditions: activator capsaicin or camphor applied co-incident with curcumin or 5 minutes after curcumin. In kind it is cell-based. The procedure:
It will be further understood by those skilled in the art that active ingredients appropriate for use in the present smokeless tobacco product may function as antagonists to one or more receptors and/or channels and agonists to one or more receptors and/or channels. Compounds known to activate the TRPV1 channel were applied to human tissue culture cells expressing the TRPV1 sensory channel either co-incident with the application of curcumin or following the application of curcumin by 5 minutes. Camphor and capsaicin are both known activators of the TRPV1 channel. However, these two compounds activate the sensory channel by different mechanisms. Curcumin, on the other hand, is a potent antagonist of the TPRV1 sensory channel. When capasaicin or camphor were added to cells expressing the TRPV1 sensory channel with curcumin, TRPV1 sensory activation was inhibited.

Chain of TRPV1 sensory channel (Q8NER1 whole entry): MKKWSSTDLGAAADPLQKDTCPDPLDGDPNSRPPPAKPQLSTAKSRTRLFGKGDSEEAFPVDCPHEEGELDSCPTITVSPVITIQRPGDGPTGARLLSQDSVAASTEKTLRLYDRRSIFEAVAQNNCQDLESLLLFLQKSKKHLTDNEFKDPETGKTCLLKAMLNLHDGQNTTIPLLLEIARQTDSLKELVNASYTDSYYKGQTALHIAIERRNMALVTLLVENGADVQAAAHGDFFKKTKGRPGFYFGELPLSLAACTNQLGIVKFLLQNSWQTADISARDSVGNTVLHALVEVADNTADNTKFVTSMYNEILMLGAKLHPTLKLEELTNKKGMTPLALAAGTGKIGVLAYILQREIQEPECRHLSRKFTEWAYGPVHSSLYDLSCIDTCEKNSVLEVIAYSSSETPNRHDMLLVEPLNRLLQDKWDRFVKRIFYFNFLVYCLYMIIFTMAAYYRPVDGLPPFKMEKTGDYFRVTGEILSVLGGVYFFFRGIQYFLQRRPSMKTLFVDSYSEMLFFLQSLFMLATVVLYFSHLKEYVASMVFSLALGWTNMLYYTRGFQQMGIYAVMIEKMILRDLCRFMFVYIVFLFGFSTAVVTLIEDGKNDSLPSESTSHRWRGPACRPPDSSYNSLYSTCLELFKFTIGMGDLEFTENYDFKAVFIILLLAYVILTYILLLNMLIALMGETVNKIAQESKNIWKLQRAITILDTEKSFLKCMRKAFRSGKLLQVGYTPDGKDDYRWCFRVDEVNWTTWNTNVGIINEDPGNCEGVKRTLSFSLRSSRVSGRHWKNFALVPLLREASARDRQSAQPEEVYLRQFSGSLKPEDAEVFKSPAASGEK

`CC12CCC(CC1=O)C2(C)C` (stereo not drawn) [camphor]: the “activation of sensory nerve fibers induced by nicotine” value in assay [1] was “effectively inhibit”. The “sensation of burning at the pouch location and along the path of saliva that had been in contact with the pouch” value in assay [2] is reported as “reduced the sensation of burning”. Regarding `COc1cc(/C=C/C(=O)CC(=O)/C=C/c2ccc(O)c(OC)c2)ccc1O` [curcumin], the TRPV1 sensory activation result in assay [3] is reported as “inhibited”.
